Patent publication US20230113037A1 (Bayer Aktiengesellschaft, priority 2019, published 2023)

Key:
AHR [1] = target: T1, AHR (Homo sapiens, UniProt P35869); experiment: In vitro assay 1: antagonism in human cell line (AHR transactivation, firefly luciferase reporter, kynurenic acid prestimulated); assay type: cell-based; details: AHR Antagonism Human IC50 [M]
T1 construct: U87 MG glioblastoma cells (ATCC #HTB-14) endogenously expressing AHR; endogenous in cells; host or cells: U87 MG glioblastoma cells (ATCC #HTB-14)
T1 sequence (P35869 11-848): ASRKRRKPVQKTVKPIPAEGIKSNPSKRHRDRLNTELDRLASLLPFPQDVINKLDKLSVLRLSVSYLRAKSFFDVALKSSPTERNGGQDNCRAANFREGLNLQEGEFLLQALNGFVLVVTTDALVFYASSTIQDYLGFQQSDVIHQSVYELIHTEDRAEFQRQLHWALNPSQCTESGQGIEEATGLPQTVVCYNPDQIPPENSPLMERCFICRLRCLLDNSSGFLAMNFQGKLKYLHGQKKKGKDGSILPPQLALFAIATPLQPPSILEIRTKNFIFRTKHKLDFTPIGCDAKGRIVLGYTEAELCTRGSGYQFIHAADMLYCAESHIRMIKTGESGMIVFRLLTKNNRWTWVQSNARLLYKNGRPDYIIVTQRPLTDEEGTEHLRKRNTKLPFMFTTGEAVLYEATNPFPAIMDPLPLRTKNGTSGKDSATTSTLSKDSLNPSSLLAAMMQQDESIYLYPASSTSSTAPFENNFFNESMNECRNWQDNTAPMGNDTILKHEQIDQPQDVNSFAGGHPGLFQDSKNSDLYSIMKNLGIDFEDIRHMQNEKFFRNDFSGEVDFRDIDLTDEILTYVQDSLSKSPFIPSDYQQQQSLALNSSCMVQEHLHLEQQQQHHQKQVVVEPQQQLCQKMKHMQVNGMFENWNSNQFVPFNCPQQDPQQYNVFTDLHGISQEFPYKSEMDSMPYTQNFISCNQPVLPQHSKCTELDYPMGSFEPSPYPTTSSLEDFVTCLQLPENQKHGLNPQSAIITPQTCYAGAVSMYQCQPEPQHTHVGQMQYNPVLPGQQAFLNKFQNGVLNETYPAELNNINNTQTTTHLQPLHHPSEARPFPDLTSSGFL
Summary of the method: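 U87 MG + DRE-firefly/constitutive-Renilla stable reporters; kynurenic acid prestim; dual-luc read; Renilla = tox; normalized vs pos/neg controls (pos: 150 μM KYNA + 5 μM staurosporine).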

AHR [2] = target: T2, AHR (Mus musculus, UniProt P30561); experiment: In vitro assay 3: antagonism in mouse cell line (AHR transactivation, firefly luciferase reporter, kynurenic acid prestimulated); assay type: cell-based; details: mouse Hepa 1c1c7 cells, 200 μM kynurenic acid, 20 hours, read-out: AHR Antagonism Mouse IC50
T2 sequence (P30561 1-848 P471L/N533S/M589L): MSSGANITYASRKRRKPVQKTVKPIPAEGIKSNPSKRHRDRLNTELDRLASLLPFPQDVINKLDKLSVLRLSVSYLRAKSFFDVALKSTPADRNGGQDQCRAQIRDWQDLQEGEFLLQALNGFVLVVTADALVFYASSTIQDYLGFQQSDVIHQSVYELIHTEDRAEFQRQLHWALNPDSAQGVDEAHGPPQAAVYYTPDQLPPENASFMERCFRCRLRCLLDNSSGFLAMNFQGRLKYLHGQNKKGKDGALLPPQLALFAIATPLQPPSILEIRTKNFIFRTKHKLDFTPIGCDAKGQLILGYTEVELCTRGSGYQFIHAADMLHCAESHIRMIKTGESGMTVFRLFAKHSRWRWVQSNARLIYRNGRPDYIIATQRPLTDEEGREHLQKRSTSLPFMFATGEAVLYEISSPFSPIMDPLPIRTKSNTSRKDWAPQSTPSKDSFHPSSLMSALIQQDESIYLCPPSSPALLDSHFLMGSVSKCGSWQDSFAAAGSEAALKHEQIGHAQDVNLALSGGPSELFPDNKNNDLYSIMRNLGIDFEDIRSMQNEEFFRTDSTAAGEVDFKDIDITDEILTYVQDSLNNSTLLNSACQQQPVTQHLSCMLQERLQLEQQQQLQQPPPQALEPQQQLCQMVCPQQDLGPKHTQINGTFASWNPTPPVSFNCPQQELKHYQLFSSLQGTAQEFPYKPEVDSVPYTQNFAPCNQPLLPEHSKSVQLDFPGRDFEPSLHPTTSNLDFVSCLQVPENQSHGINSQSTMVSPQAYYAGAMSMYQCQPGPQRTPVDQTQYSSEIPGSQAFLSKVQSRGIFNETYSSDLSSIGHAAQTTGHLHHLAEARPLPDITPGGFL
Summary of the method: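 Mouse cells stably carrying a DRE-driven AHR-inducible firefly luciferase reporter were prestimulated with the endogenous agonist kynurenic acid before compound addition. Luciferase read by SteadyGlo; cells without kynurenic acid served as full-inhibition control, with normalization to positive and negative controls. Repeat tests reported as mean or median.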

O=C1NCCCC[C@H]1Nc1nc2ccccc2c2nc(-c3cnn(C4COC4)c3)nn12 [Example 595, (3R)-3-({2-[1-(oxetan-3-yl)-1H-pyrazol-4-yl][1,2,4]triazolo[1,5-c]quinazolin-5-yl}amino)azepan-2-one] gave an IC50 (AHR [1]) of 5.18e-08 M and an IC50 (AHR [2]) of 34 nM.
Work on CN1CCC(n2cc(-c3nc4c5ccccc5nc(N[C@@H]5CCCCNC5=O)n4n3)cn2)CC1 [Example 596, (3R)-3-({2-[1-(1-methylpiperidin-4-yl)-1H-pyrazol-4-yl][1,2,4]triazolo[1,5-c]quinazolin-5-yl}amino)azepan-2-one] yielded an IC50 (AHR [1]) of 4.08e-06 M and an IC50 (AHR [2]) of 3140 nM.
O=C1NCCCC[C@H]1Nc1nc2ccccc2c2nc(-c3cnn(CC4CCC4)c3)nn12 [Example 597, (3R)-3-({2-[1-(cyclobutylmethyl)-1H-pyrazol-4-yl][1,2,4]triazolo[1,5-c]quinazolin-5-yl}amino)azepan-2-one] was tested, and the IC50 (AHR [1]) was 1.16e-08 M and the IC50 (AHR [2]) was 7.57 nM.
With O=C1NCCCC[C@H]1Nc1nc2ccccc2c2nc(-c3cnn(CCCO)c3)nn12 [Example 598, (3R)-3-({2-[1-(3-hydroxypropyl)-1H-pyrazol-4-yl][1,2,4]triazolo[1,5-c]quinazolin-5-yl}amino)azepan-2-one] the IC50 (AHR [1]) was 2.8e-07 M and the IC50 (AHR [2]) was 171 nM.
For CN(C)CCn1cc(-c2nc3c4ccccc4nc(N[C@@H]4CCCCNC4=O)n3n2)cn1 [Example 599, (3R)-3-[(2-{1-[2-(dimethylamino)ethyl]-1H-pyrazol-4-yl}[1,2,4]triazolo[1,5-c]quinazolin-5-yl)amino]azepan-2-one], the IC50 (AHR [1]) was 5.81e-07 M and the IC50 (AHR [2]) was 2120 nM.
O=C1NCCCC[C@H]1Nc1nc2ccccc2c2nc(-c3cnn(C4CCOCC4)c3)nn12 [Example 600, (3R)-3-({2-[1-(oxan-4-yl)-1H-pyrazol-4-yI][1,2,4]triazolo[1,5-c]quinazolin-5-yl}amino)azepan-2-one] showed an IC50 (AHR [1]) of 4.48e-08 M and an IC50 (AHR [2]) of 31.3 nM.
In the case of O=C1NCCCC[C@H]1Nc1nc2ccccc2c2nc(-c3cnn(CCO)c3)nn12 [Example 601, (3R)-3-({2-[1-(2-hydroxyethyl)-1H-pyrazol-4-yl][1,2,4]triazolo[1,5-c]quinazolin-5-yl}amino)azepan-2-one], the IC50 (AHR [1]) is reported as 2.96e-07 M and the IC50 (AHR [2]) is reported as 158 nM.
In the case of O=C1NCCCC[C@H]1Nc1nc2ccccc2c2nc(-c3cnn(CC4CC4)c3)nn12 [Example 602, (3R)-3-({2-[1-(cyclopropylmethyl)-1H-pyrazol-4-yl][1,2,4]triazolo[1,5-c]quinazolin-5-yl}amino)azepan-2-one], the IC50 (AHR [1]) is reported as 6.81e-09 M and the IC50 (AHR [2]) is reported as 2.69 nM.
O=C1NCCCC[C@H]1Nc1nc2ccccc2c2nc(-c3cnn(C4CCC4)c3)nn12 [Example 603, (3R)-3-{[2-(1-cyclobutyl-1H-pyrazol-4-yl)[1,2,4]triazolo[1,5-c]quinazolin-5-yl]amino}azepan-2-one] showed an IC50 (AHR [1]) of 4.08e-09 M and an IC50 (AHR [2]) of 3.39 nM.
In the case of O=C1NCCCC[C@H]1Nc1nc2ccccc2c2nc(-c3c[nH]nc3C(F)(F)F)nn12 [Example 604, (3R)-3-({2-[3-(trifluoromethyl)-1H-pyrazol-4-yl][1,2,4]triazolo[1,5-c]quinazolin-5-yl}amino)azepan-2-one], the IC50 (AHR [1]) is reported as 1.33e-07 M and the IC50 (AHR [2]) is reported as 347 nM.
Cc1nn(C)cc1-c1nc2c3ccccc3nc(N[C@@H]3CCCCNC3=O)n2n1 [Example 605, (3R)-3-{[2-(1,3-dimethyl-1H-pyrazol-4-yl)[1,2,4]triazolo[1,5-c]quinazolin-5-yl]amino}azepan-2-one] was tested, and the IC50 (AHR [1]) was 1.59e-09 M and the IC50 (AHR [2]) was 1.05 nM.
In the case of Cc1cc(-c2nc3c4ccccc4nc(N[C@@H]4CCCCNC4=O)n3n2)c(C)n1C [Example 606, (3R)-3-{[2-(1,2,5-trimethyl-H-pyrrol-3-yl)[1,2,4]triazolo[1,5-c]quinazolin-5-yl]amino}azepan-2-one], the IC50 (AHR [1]) is reported as 9.02e-09 M and the IC50 (AHR [2]) is reported as 3.08 nM.
CC(C)(C)n1nccc1-c1nc2c3ccccc3nc(N[C@@H]3CCCCNC3=O)n2n1 [Example 608, (3R)-3-{[2-(1-tert-butyl-1H-pyrazol-5-yl)[1,2,4]triazolo[1,5-c]quinazolin-5-yl]amino}azepan-2-one] gave an IC50 (AHR [1]) of 1.12e-07 M and an IC50 (AHR [2]) of 25.5 nM.
